Patent US20230340419A1, “METHODS FOR GENERATION OF MOUSE AND HUMAN URETERIC BUD ORGANOIDS AND COLLECTING DUCT ORGANOIDS” (University of Southern California, priority 2020, published 2023)

What was measured:
Type in all cases: cell-based, mouse
Wnt11-RFP UB organoid [1] = assay: Stage III 1st round screening of growth factors and small molecules for UB organoid culture condition; details: for Wnt11-RFP / Organoid growth: reagent added to FGF9 + C3 + TTNPB + GDNF, compared to that control group; for Effect when used individually: individual versus combinatorial use of JAKI and SB202190
Source text: We employed this Wnt11-RFP reporter system as a readout to screen for a culture condition that maintained the progenitor identity of UPCs in vitro. T-shaped UBs were manually isolated from E11.5 kidneys of Wnt11-RFP mice, and immediately embedded into Matrigel to set up a 3D culture platform that supported epithelial branching. In this 3D culture format, built on previous efforts towards the ex vivo culture of UB, hundreds of different combinations of growth factors and small molecules were tested (see also the Materials and Techniques section below for details under subheading “Screening for optimal UB culture condition”).
We systematically screened the optimal UB culture condition in four different stages (Stages I-IV).
In Stage III, based on the optimized recipe consisting of FGF9, TTNPB, CHIR99021 (3 μM) and GDNF, we preformed our 1st round of screening of growth factors and small molecules targeting major developmental pathways (e.g. TGF-β, BMP, Wnt, FGF, Hedgehog and Notch) and others. The branching morphogenesis, growth rate and Wnt11-RFP were recorded as readouts (Table 1). […] Representative images were taken at least for LDN193189, A83-01, and R-Spondin 1. These individual hits were then subjected to a 2nd round of screening to test their effects in various combinations, eventually leading to the identification of the optimal UB progenitor culture medium UBCM consisting of FGF9, TTNPB, CHIR99021 (3 μM), GDNF, LDN193189, A83-01, R-Spondin1, JAKI and SB202190.

UB organoids = assay: 2nd round of CD differentiation condition screening (qRT-PCR of Aqp2 and Foxi1); details: for Foxi1 expression / Aqp2 expression: qRT-PCR, 7 days, under hBI+FGF9+Y27632 condition
Experimental: The functions of the mature renal CD system are carried out by two major cell populations that are intermingled throughout the entire CD network. The more abundant principal cells (PCs) concentrate the urine and regulate Na^+/K^+ homeostasis via water and Na^+/K^+ transporters. The less abundant α- and β-intercalated cells (ICs) regulate normal acid-base homeostasis via secretion of H^+ or HCO3^− into the urine. The absence of an in vitro system recapitulating PC and IC development in an appropriate 3D context, constrains physiological exploration, disease modeling and drug screening on the renal CD system. With this limitation in mind, we developed a screen to establish conditions supporting the differentiation of CD organoids, assaying expression of Aqp2 and Foxi1, definitive markers for PC and IC lineages, respectively, by quantitative reverse transcription PCR (qRT-PCR), following 7 days of culture under variable but defined culture conditions (FIG. 2A).
Agonists or antagonists targeting major developmental pathways (e.g. TGF-β, BMP, Wnt, FGF, Hedgehog and Notch) were tested, together with hormonal inputs known to regulate PC or IC activity (aldosterone and vasopressin).

Wnt11-RFP UB organoid [2] = assay: Withdrawal of individual components from UBCM (Stage IV validation); details: component withdrawn from UBCM
Source text: To determine whether UBCM culture conditions enabled clonal growth from a single UPC, dissociated E11.5 UBs were embedded at clonal density in Matrigel and cultured in UBCM medium. Around 30% of the single cells self-organized into E11.5 UB-like budding structures within 5 days, though a smaller percentage (3-5%) maintained Wnt11-RFP (FIG. 1G), an efficiency similar to clonal organoid formation for Lgr5^+ intestinal stem cells. Importantly, the clonally-derived Wnt11-RFP^+ budding structures were identical to intact E11.5 UB-derived organoids in both branching morphology and growth rate (Table 3, FIG. 1H).
Lastly, in Stage IV, we asked whether each of the components in UBCM was essential.

Wnt11-RFP UB = assay: Stage II optimisation of individual UB medium components; details: titrated at 1, 3 and 6 μM
Source text: In Stage II, we optimized the individual medium components employed by Yuri et al. (FGF1, RA, CHIR99021, and GDNF). We first asked if each individual factor was necessary in the medium. […] Then we further optimized these factors. RA is known to be unstable in tissue culture, so we replaced it with another widely used small molecule RA substitute TTNPB. CHIR99021 was used at 1p M by Yuri et al., but based on our own experiences and literature, different doses of CHIR99021 often have different biological effects. So we titrated it from 1p M, 3p M, to 6 μM, from which we identified 3 μM to be the optimal concentration. […] GDNF was unchanged in the medium, considering its essential role in maintaining the UB progenitor population in vitro and in vivo.

With `Cc1cccc(-c2nn(C(=S)Nc3ccccc3)cc2-c2ccnc3ccccc23)n1` [A83-01] the Wnt11-RFP (Wnt11-RFP UB organoid [1]) was “Better”.

`NC(=O)c1ncn([C@@H]2O[C@H](CO)[C@@H](O)[C@H]2O)c1N` [AICAR] was tested, and the Wnt11-RFP (Wnt11-RFP UB organoid [1]) was “Slighty Better”.

`C[C@]12CCC(=O)C=C1CC[C@@H]1[C@@H]2[C@@H](O)C[C@]2(C=O)[C@@H](C(=O)CO)CC[C@@H]12` [Aldosterone] was tested, and the Foxi1 expression (UB organoids) was “preferential increase”.

In the case of `Cc1c[nH]c(-c2cnc(NCCNc3ccc(C#N)cn3)nc2-c2ccc(Cl)cc2Cl)n1` [CHIR99021], the “Effect of withdrawal of the component from UBCM on organoid growth” value (Wnt11-RFP UB organoid [2]) is reported as “growth arrest” and the Optimal concentration (Wnt11-RFP UB) is reported as 3 µM.

With `C[C@H](NC(=O)Cc1cc(F)cc(F)c1)C(=O)N[C@H](C(=O)OC(C)(C)C)c1ccccc1` [DAPT] the Wnt11-RFP (Wnt11-RFP UB organoid [1]) was “Better”, the Aqp2 expression (UB organoids) was “dramatically increased” and the Foxi1 expression (UB organoids) was “dramatically increased”.

`CC(C)(C)c1nc2c3cc[nH]c(=O)c3c3cc(F)ccc3c2[nH]1` [JAKI] was tested, and the “Effect when used individually” value (Wnt11-RFP UB organoid [1]) was “only marginal effects”, the Wnt11-RFP (Wnt11-RFP UB organoid [1]) was “Slightly Better” and the Aqp2 expression (UB organoids) was “dramatically increased”. For the same molecule, the Foxi1 expression (UB organoids) was “dramatically increased”.

`c1ccc2c(-c3cnn4cc(-c5ccc(N6CCNCC6)cc5)cnc34)ccnc2c1` [LDN193189] was tested, and the Wnt11-RFP (Wnt11-RFP UB organoid [1]) was “Better”.

For `CN(C)C(=N)NC(=N)N` [Melformin], the Wnt11-RFP (Wnt11-RFP UB organoid [1]) was “Slightly Better”.

In the case of `O=C(NOC[C@H](O)CO)c1ccc(F)c(F)c1Nc1ccc(I)cc1F` [PD0325901], the Organoid growth (Wnt11-RFP UB organoid [1]) is reported as “No growth”, the Wnt11-RFP (Wnt11-RFP UB organoid [1]) is reported as “Dead at D 6” and the Aqp2 expression (UB organoids) is reported as “dramatically increased”. The Foxi1 expression (UB organoids) was “dramatically increased”.

For `Oc1ccc(-c2nc(-c3ccncc3)c(-c3ccc(F)cc3)[nH]2)cc1` [S6202190], the “Effect when used individually” value (Wnt11-RFP UB organoid [1]) was “only marginal effects” and the Wnt11-RFP (Wnt11-RFP UB organoid [1]) was “Slightly Better”.

`NC(=O)CC[C@@H]1NC(=O)[C@H](Cc2ccccc2)NC(=O)[C@H](Cc2ccc(O)cc2)NC(=O)[C@@H](N)CSSC[C@@H](C(=O)N2CCC[C@H]2C(=O)N[C@@H](CCCN=C(N)N)C(=O)NCC(N)=O)NC(=O)[C@H](CC(N)=O)NC1=O` [Vasopressin] was tested, and the Aqp2 expression (UB organoids) was “enhanced”.

For `CN1C(=O)c2sccc2N(C)c2nc(Nc3ccc(S(N)(=O)=O)cc3)ncc21` [XMU-MP-1], the Organoid growth (Wnt11-RFP UB organoid [1]) was “No growth”.

For “Activin A: growth factor tested in screening”, the Organoid growth (Wnt11-RFP UB organoid [1]) was “Slower”, the Wnt11-RFP (Wnt11-RFP UB organoid [1]) was “Worse” and the Note (UB organoids) was “Dramatic”.

In the case of “EGF: epidermal growth factor (NSDSECPLSHDGYCLHDGVCMYIEALDKYACNCVVGYIGERCQYRDLKWWELR; Epidermal growth factor; UniProt P01133 971-1023, looked up)”, the Wnt11-RFP (Wnt11-RFP UB organoid [1]) is reported as “Better”.

With FGF2: member of the FGF family the Wnt11-RFP (Wnt11-RFP UB organoid [1]) was “Worse”.

For FGF20: member of the FGF family, the Wnt11-RFP (Wnt11-RFP UB organoid [1]) was “Worse”.

In the case of Heparin, the Wnt11-RFP (Wnt11-RFP UB organoid [1]) is reported as “Slightly Better”.

For SCF: growth factor tested in screening, the Organoid growth (Wnt11-RFP UB organoid [1]) was “Slightly better” and the Wnt11-RFP (Wnt11-RFP UB organoid [1]) was “Better”.

With Verteporfin the Organoid growth (Wnt11-RFP UB organoid [1]) was “Dead”.
